From patent US20230032473A1, “NAD(H) NANOPARTICLES AND METHODS OF USE” (Wisconsin Alumni Research Foundation, priority 2021, published 2023)

What was measured:
LPS-stimulated BMDM = experiment: Pro-inflammatory cytokine levels by ELISA in LPS-stimulated BMDM; assay type: cell-based, murine; conditions: LPS 100 ng/mL, 10 μM NAD(H) equivalent, 12 h
From the text: Measurement of inflammation related cytokine levels. […] Twelve hours after the treatment, the cell culture media were collected to analyze the cytokine production by ELISA kits supplied by R&D Systems according to the manufacturer's instructions. Data were collected by monitoring the difference between the absorbance at 450 nm and 570 nm using the Microplate Reader.

[1] = test system: CLP-induced sepsis with P. aeruginosa secondary infection; experiment: Cecal ligation and puncture (CLP) and P. aeruginosa secondary infection model; assay type: in vivo, mice
From the text: Cecal ligation and puncture (CLP) and P. aeruginosa secondary infection model. Mice were anesthetized with isoflurane. Thereafter, the abdominal cavity was opened with a midline incision to expose the cecum. The distal 50% of the cecum was ligated with a 6-0 silk suture and perforated with a 19-gauge needle twice. Subsequently, a small amount of feces was squeezed out and spread around the cecum. The cecum was relocated into the peritoneal cavity, and the laparotomy site was closed, followed by subcutaneous injection of 1 mL resuscitative prewarmed sterile saline (Dawulieti, J. et al. Treatment of severe sepsis with nanoparticulate cell-free DNA scavengers. Science advances 6, eaay7148 (2020)). This level of injury was utilized to create a prolonged infection that impaired immune system and induced approximate 30% mortality. Two injections of free NAD^+ (20 mg/kg per injection), LP-CaP, or NAD^+-LP-CaP (an equivalent dose of NAD^+20 mg/kg per injection) were given through tail vein 6 h and 24 h after the surgery. […] Mice survival and body weight were recorded over time and presented using Kaplan—Meier curves (n=14). […] The CLP mice were monitored twice daily and their conditions were evaluated using a sepsis scoring sheet. […]

Structure (SMILES): NC(=O)C1=CN([C@@H]2O[C@H](COP(=O)([O-])OP(=O)([O-])OC[C@H]3O[C@@H](n4cnc5c(N)ncnc54)[C@H](O)[C@@H]3O)[C@@H](O)[C@H]2O)C=CC1.[Na+].[Na+] [NADH, β-Nicotinamide adenine dinucleotide, reduced disodium salt]
- production of IL-6 (LPS-stimulated BMDM): did not affect
- production of TNF-α (LPS-stimulated BMDM): did not affect

Structure (SMILES): NC(=O)C1=CN([C@@H]2O[C@H](COP(=O)(O)OP(=O)(O)OC[C@H]3O[C@@H](n4cnc5c(N)ncnc54)[C@H](O)[C@@H]3O)[C@@H](O)[C@H]2O)C=CC1 [free NAD^+, β-Nicotinamide adenine dinucleotide]
- survival rate [1]: did not improve the survival rate
- production of IL-6 (LPS-stimulated BMDM): did not affect
- production of TNF-α (LPS-stimulated BMDM): did not affect
